The results in this text go back to patent US20140148368A1, “DRILLING FLUIDS AND DRILLING FLUID ADDITIVES FOR TREATMENT OF BITUMEN IN WELLBORE CUTTINGS” (Marquis Alliance Energy Group Inc., priority 2012, published 2014).

The data set is described as follows: Test Program #1: solubility of dodecanedioic acid powder in bitumen wafer. It is filed as physicochemical. The conditions noted are these: ambient temperature, 3 days. The source says:
The solubility of dodecanedioic acid powder in bitumen was proven in laboratory experiments in which a 30-gram bitumen core sample was compressed at 1,000 pounds per square inch using a compactor, to make bitumen wafers having a diameter of 2.75 cm and a depth (thickness) of 1.8 cm. The bitumen wafer was rolled over carefully in a container with a sufficient quantity of dodecanedioic acid powder. The surface of bitumen wafer was covered with a thin layer of the dodecanedioic acid powder, and the color of the bitumen turned from black to white.

Structures are written as SMILES.

In the case of `O=C(O)CCCCCCCCCCC(=O)O` [dodecanedioic acid], the “solubility of powder in bitumen (visual inspection of powder-covered wafer)” value is recorded as “all of the white dodecanedioic acid powder had disappeared”.
